{"source": "patent US12077503B2", "about": "“Substituted cyclic amides and their use as herbicides” (FMC CORPORATION, priority 2015, dated 2024)", "assay_type_in_all_cases": "in vivo", "key": {"[1]": {"system": "barnyardgrass (Echinochloa crus-galli)", "assay": "Test B flooded paddy test", "conditions": "Echinochloa crus-galli, 250 g ai/ha, Flood; 0 to 100 scale where 0 is no effect and 100 is complete control; read-out: Barnyardgrass plant response rating", "method_in_brief": "(§1)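 Greenhouse paddy pots with 2-leaf stage plants received compound by direct addition to floodwater 3 cm deep, kept at that level. Scored visually at 13–15 d versus controls (0 no effect; 100 complete control).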"}, "[2]": {"system": "sedge, umbrella (small-flower umbrella sedge, Cyperus difformis)", "assay": "Test B flooded paddy test", "conditions": "Cyperus difformis, 250 g ai/ha, Flood; 0 to 100 scale where 0 is no effect and 100 is complete control; read-out: Sedge, Umbrella plant response rating", "method_in_brief": "as §1"}, "[3]": {"system": "ducksalad (Heteranthera limosa)", "assay": "Test B flooded paddy test", "conditions": "Heteranthera limosa, 250 g ai/ha, Flood; 0 to 100 scale where 0 is no effect and 100 is complete control; read-out: Ducksalad plant response rating", "method_in_brief": "as §1"}, "rice (Oryra sativa)": {"system": "rice (Oryra sativa)", "assay": "Test B flooded paddy test", "conditions": "Oryza sativa, 250 g ai/ha, Flood; 0 to 100 scale where 0 is no effect and 100 is complete control; read-out: Rice plant response rating", "method_in_brief": "as §1"}, "[4]": {"system": "pigweed (Amaranthus retroflexus)", "assay": "Test A postemergence", "conditions": "Amaranthus retroflexus, post-emergence, 240 h, read-out: Pigweed plant response rating (0 to 100 scale)", "method_in_brief": "(§2)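 Preemergence directed soil spray on seeded pots, or postemergence application to plants 2–10 cm, one- to two-leaf. Solvent mixture non-phytotoxic, with surfactant. Scored ~10 d later, visually, 0–100 vs untreated.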"}, "[5]": {"system": "barnyardgrass (Echinochloa crus-galli)", "assay": "Test A postemergence", "conditions": "Echinochloa crus-galli, post-emergence, 240 h, read-out: Barnyardgrass plant response rating (0 to 100 scale)", "method_in_brief": "as §2"}, "[6]": {"system": "wheat (Triticum aestivum)", "assay": "Test A postemergence", "conditions": "Triticum aestivum, post-emergence, 240 h, Postemergence, 31 g ai/ha; 0 is no effect, 100 is complete control; read-out: Wheat plant response rating (0 to 100 scale)", "method_in_brief": "as §2"}, "[7]": {"system": "giant foxtail (Setaria faberii)", "assay": "Test A postemergence", "conditions": "Setaria faberi, post-emergence, 240 h, read-out: Foxtail, Giant plant response rating (0 to 100 scale)", "method_in_brief": "as §2"}, "corn (Zea mays)": {"system": "corn (Zea mays)", "assay": "Test A postemergence", "conditions": "Zea mays, post-emergence, 240 h, read-out: Corn plant response rating (0 to 100 scale)", "method_in_brief": "as §2"}, "[8]": {"system": "ragweed (common ragweed, Ambrosia elatior)", "assay": "Test A postemergence", "conditions": "Ambrosia artemisiifolia, post-emergence, 240 h, read-out: Ragweed plant response rating (0 to 100 scale)", "method_in_brief": "as §2"}, "[9]": {"system": "blackgrass (Alopecurus myosuroides)", "assay": "Test A postemergence", "conditions": "Alopecurus myosuroides, post-emergence, 240 h, read-out: Blackgrass plant response rating (0 to 100 scale)", "method_in_brief": "as §2"}, "[10]": {"system": "ryegrass, Italian (Italian ryegrass, Lolium multiflorum)", "assay": "Test A postemergence", "conditions": "Lolium multiflorum, post-emergence, 240 h, read-out: Ryegrass, Italian plant response rating (0 to 100 scale)", "method_in_brief": "as §2"}, "Kochia (Kochia scoparia) [11]": {"system": "Kochia (Kochia scoparia)", "assay": "Test A postemergence", "conditions": "Bassia scoparia, post-emergence, 240 h, read-out: Kochia plant response rating (0 to 100 scale)", "method_in_brief": "as §2"}, "[12]": {"system": "Galium (catchweed bedstraw, Galium aparine)", "assay": "Test A postemergence", "conditions": "Galium, post-emergence, 240 h, read-out: Galium plant response rating (0 to 100 scale)", "method_in_brief": "as §2"}, "[13]": {"system": "pigweed (Amaranthus retroflexus)", "assay": "Test A preemergence", "conditions": "Amaranthus retroflexus, pre-emergence, 240 h, 0 to 100 scale where 0 is no effect and 100 is complete control, read-out: Pigweed plant response rating"}, "[14]": {"system": "barnyardgrass (Echinochloa crus-galli)", "assay": "Test A preemergence", "conditions": "Echinochloa crus-galli, pre-emergence, 240 h, 0 to 100 scale where 0 is no effect and 100 is complete control, read-out: Barnyardgrass plant response rating", "method_in_brief": "as §2"}, "[15]": {"system": "giant foxtail (Setaria faberii)", "assay": "Test A preemergence", "conditions": "Setaria faberi, pre-emergence, 240 h, 0 to 100 scale where 0 is no effect and 100 is complete control, read-out: Foxtail, Giant plant response rating", "method_in_brief": "as §2"}, "[16]": {"system": "ragweed (common ragweed, Ambrosia elatior)", "assay": "Test A preemergence", "conditions": "Ambrosia artemisiifolia, pre-emergence, 240 h, 0 to 100 scale where 0 is no effect and 100 is complete control, read-out: Ragweed plant response rating", "method_in_brief": "as §2"}, "[17]": {"system": "ryegrass, Italian (Italian ryegrass, Lolium multiflorum)", "assay": "Test A preemergence", "conditions": "Lolium multiflorum, pre-emergence, 240 h, 0 to 100 scale where 0 is no effect and 100 is complete control, read-out: Ryegrass, Italian plant response rating", "method_in_brief": "as §2"}, "Kochia (Kochia scoparia) [18]": {"system": "Kochia (Kochia scoparia)", "assay": "Test A preemergence", "conditions": "Bassia scoparia, pre-emergence, 240 h, 0 to 100 scale where 0 is no effect and 100 is complete control, read-out: Kochia plant response rating", "method_in_brief": "as §2"}, "[19]": {"conditions": "125 g ai/ha, postemergence, visual injury vs untreated controls after approx. 10 d, 0 = no effect, 100 = complete control"}, "[20]": {"conditions": "Postemergence, 31 g ai/ha, 0 is no effect, 100 is complete control"}, "[21]": {"conditions": "125 g ai/ha, preemergence, visual injury rating, approximately 10 d"}}, "data": [{"smiles": "O=C1NC[C@H](c2ccc(Cl)c(F)c2)[C@H]1C(=O)Nc1cccc(F)c1F", "note": "[Compound 1262]", "values": [{"measurement": "pest or weed control at 250 g/ha", "setting": "[1]", "value": 65, "unit": "%"}, {"measurement": "pest or weed control at 250 g/ha", "setting": "[2]", "value": 0, "unit": "%"}, {"measurement": "pest or weed control at 250 g/ha", "setting": "[3]", "value": 100, "unit": "%"}, {"measurement": "pest or weed control at 250 g/ha", "setting": "rice (Oryra sativa)", "value": 10, "unit": "%"}, {"measurement": "pest or weed control at 125 g/ha", "setting": "[4]; [19]", "value": 70, "unit": "%"}, {"measurement": "pest or weed control at 31 g/ha", "setting": "[4]; [20]", "value": 30, "unit": "%"}, {"measurement": "pest or weed control at 125 g/ha", "setting": "[5]; [19]", "value": 90, "unit": "%"}, {"measurement": "pest or weed control at 31 g/ha", "setting": "[5]; [20]", "value": 70, "unit": "%"}, {"measurement": "plant injury at 31 g/ha", "setting": "[6]", "value": 0, "unit": "%"}, {"measurement": "pest or weed control at 125 g/ha", "setting": "[7]; [19]", "value": 80, "unit": "%"}, {"measurement": "pest or weed control at 31 g/ha", "setting": "[7]; [20]", "value": 70, "unit": "%"}, {"measurement": "plant injury at 125 g/ha", "setting": "corn (Zea mays); [19]", "value": 60, "unit": "%"}, {"measurement": "plant injury at 31 g/ha", "setting": "corn (Zea mays); [20]", "value": 20, "unit": "%"}, {"measurement": "pest or weed control at 125 g/ha", "setting": "[8]; [19]", "value": 30, "unit": "%"}, {"measurement": "pest or weed control at 31 g/ha", "setting": "[8]; [20]", "value": 0, "unit": "%"}, {"measurement": "pest or weed control at 125 g/ha", "setting": "[9]; [19]", "value": 50, "unit": "%"}, {"measurement": "pest or weed control at 31 g/ha", "setting": "[9]; [20]", "value": 0, "unit": "%"}, {"measurement": "pest or weed control at 125 g/ha", "setting": "[10]; [19]", "value": 20, "unit": "%"}, {"measurement": "pest or weed control at 31 g/ha", "setting": "[10]; [20]", "value": 0, "unit": "%"}, {"measurement": "pest or weed control at 125 g/ha", "setting": "Kochia (Kochia scoparia) [11]; [19]", "value": 50, "unit": "%"}, {"measurement": "pest or weed control at 31 g/ha", "setting": "Kochia (Kochia scoparia) [11]; [20]", "value": 20, "unit": "%"}, {"measurement": "pest or weed control at 125 g/ha", "setting": "[12]; [19]", "value": 70, "unit": "%"}, {"measurement": "pest or weed control at 31 g/ha", "setting": "[12]; [20]", "value": 30, "unit": "%"}, {"measurement": "pest or weed control at 31 g/ha", "setting": "[13]; 31 g ai/ha, Preemergence", "value": 0, "unit": "%"}, {"measurement": "pest or weed control at 125 g/ha", "setting": "[13]; [21]", "value": 50, "unit": "%"}, {"measurement": "pest or weed control at 31 g/ha", "setting": "[14]; 31 g ai/ha, Preemergence", "value": 70, "unit": "%"}, {"measurement": "pest or weed control at 125 g/ha", "setting": "[14]; [21]", "value": 90, "unit": "%"}, {"measurement": "pest or weed control at 31 g/ha", "setting": "[15]; 31 g ai/ha, Preemergence", "value": 90, "unit": "%"}, {"measurement": "pest or weed control at 125 g/ha", "setting": "[15]; [21]", "value": 90, "unit": "%"}, {"measurement": "pest or weed control at 31 g/ha", "setting": "[16]; 31 g ai/ha, Preemergence", "value": 0, "unit": "%"}, {"measurement": "pest or weed control at 125 g/ha", "setting": "[16]; [21]", "value": 0, "unit": "%"}, {"measurement": "pest or weed control at 31 g/ha", "setting": "[17]; 31 g ai/ha, Preemergence", "value": 0, "unit": "%"}, {"measurement": "pest or weed control at 125 g/ha", "setting": "[17]; [21]", "value": 0, "unit": "%"}, {"measurement": "pest or weed control at 31 g/ha", "setting": "Kochia (Kochia scoparia) [18]; 31 g ai/ha, Preemergence", "value": 20, "unit": "%"}, {"measurement": "pest or weed control at 125 g/ha", "setting": "Kochia (Kochia scoparia) [18]; [21]", "value": 60, "unit": "%"}]}]}
